{
  "source": "patent US5356784A",
  "about": "“Determination of concentration by affinity titration” (Terrapin Technologies, Inc., priority 1993, dated 1994)",
  "origin": "cited, not measured here",
  "data": [
    {"tested_on": "Concanavalin A (ConA)", "settings": "ConA with bacterial dextran from strain B-1355-5; materials described by Scott et al. PNAS 1992", "values": [
      {"compound": "CO[C@H]1O[C@H](CO)[C@@H](O)[C@H](O)[C@@H]1O", "note": "[MeMan, methyl-alpha-Man]", "inhibition of precipitation of ConA-dextran": "inhibited in a dosedependent manner"},
      {"compound": "MYWYPY: peptide identified by screening a phage epitope display library; inhibits Con A-dextran precipitation", "inhibition of precipitation of ConA-dextran": "inhibit"},
      {"compound": "VGRAFS: peptide identified by screening a phage epitope display library; inhibits Con A-dextran precipitation", "inhibition of precipitation of ConA-dextran": "inhibit"}
    ]}
  ]
}
